Results from patent US20260000781A1, “FC CONJUGATES INCLUDING AN INHIBITOR OF CD73 AND USES THEREOF” (Cidara Therapeutics, Inc., priority 2022, published 2026).

Assays:
[1] = system: colon tumor cell line CT26; assay: Syngeneic mouse tumor efficacy model with colon tumor cell line CT26; format: in vivo; settings: CT26, Day 10, 210 mg/kg/wk (30 mg/kg IP daily)
Protocol: Tumor efficacy models were conducted in female BALB/c mice (Charles River; 18-22 g) injected with the colon tumor cell line CT26 (ATCC; CRL-2638). Briefly, CT26 cells freshly prepared and resuspended in PBS were injected SC into the shaved right flank of mice. Tumors were allowed to grow until they became measurable (˜50 mm^3) (typically after 7-10 days of growth). Mice were then randomized so each starting group had approximately the same tumor group average (typical+/−5 mm^3) and treatment initiated. Each group consisted of 10 animals. Conjugate 133a was dosed at 20 mg/kg via intraperitoneal (IP) injection on MWF, for 2 weeks. […] The study also included a vehicle (PBS) only treatment group with the aforementioned schedule. After initiation of treatment tumors were measured 3×/week with tumor volumes calculated based on the following formula: (width×width×length)/2. All tumors were monitored until the maximum allowed volume was reached (=>2,000 mm^3).
Tumor efficacy models were conducted in female BALB/c mice (Charles River; 18-22 g) injected with the colon tumor cell line CT26 (ATCC; CRL-2638). […] After initiation of treatment tumors were measured 3×/week with tumor volumes calculated based on the following formula: (width×width×length)/2. All tumors were monitored until the maximum allowed volume was reached (=>2,000 mm^3). […]

[2] = system: breast tumor cell line EMT-6; assay: Syngeneic mouse tumor efficacy model with breast tumor cell line EMT-6; format: in vivo; settings: EMT-6, IP
Protocol: Tumor efficacy models were conducted in female BALB/c mice (Charles River laboratories; 18-22 g) injected with the breast tumor cell line EMT-6 (ATCC; CRL-2755). Briefly, EMT-6 cells propagated and prepared by standard methods were resuspended in PBS and injected subcutaneously (in a 100 μL volume) into the shaved right flank of mice. Five days after cell injection, and prior to measurable tumor formation, treatment was initiated via IP injection (10 mL/kg) of test articles or controls. […] The test article was Conjugate 172a dosed at 30 mg/kg twice weekly, for 3 weeks. The final group consisted of mice dosed with both the anti-PD-1 mAb and Conjugate 172a at 30 mg/kg using the respective dosing schedules for each.
Each group consisted of 15 animals and tumors were measured 3× weekly with calipers on Mon/Wed/Fri. Tumor volumes were calculated based on the following formula: [(width×width×length)/2]. All tumors were monitored until the maximum allowed volume was reached (=>2,000 mm^3).
Although occasionally an animal would be removed from study if the tumor grew internally causing undo stress to the animal, or the inability to measure the tumor accurately. Data was analyzed and graphed with Graphpad Prism 6.00. Where conducted, statistical evaluation used the Mann-Whitney variation of the t-test. […]

[3] = system: human T cells; assay: Rescue of T cell activation in the presence of AMP; format: cell-based; settings: CD25, 72 h
Protocol: Human T cells (cat. no. 72400, Stem Cell Tech) were activated with anti-CD3/CD28/CD2 T cell activator (cat. no. 10970, Stem Cell Technologies) and seeded at 1×10^5 cells/well in ImmunoCult™—XF T Cell Expansion medium into 96-well tissue culture-treated plates. Test articles were added at concentrations ranging from 1 to 10,000 nM. Next, adenosine 5′-monophosphate (AMP; cat. no 01930, Sigma) was added at 30 μM or 100 μM. Cells, test articles and AMP were incubated at 37° C., 5% CO2 for 72 h. After 72 h, cell supernatant was removed, and T cells were washed in staining buffer prior to staining for CD25 with anti-human CD25 PE antibody (cat. no 60153PE, Stem Cell Technologies, clone 2A3). After staining, cells were washed in staining buffer. 10,000 events were collected on flow cytometer Northern Lights (Cytek). Percent rescue versus concentration were plotted using GraphPad Prism Version 8 and EC50's calculated using nonlinear regression analysis ([inhibitor]vs normalized response).

Structure (SMILES): C[C@H](Nc1cc(Cl)nc2c1cnn2[C@@H]1O[C@H](COP(=O)(O)CP(=O)(O)O)[C@@H](O)[C@H]1O)c1ccccc1F [AB680]
- reduction in tumor volume compared to the vehicle group [1]: 50.7%
- % Complete regression (Day 36) ([2]; 15 animals per group, regimens as for % tumor reduction): 6.7%
- % Tumor reduction (Day 22) ([2]; Conjugate 172a 30 mg/kg twice weekly for 3 weeks, AB680 30 mg/kg daily, anti-PD-1 mAb on Day 0, 2, 4, 7, 9, 12): 0%

Structure (SMILES): COC[C@](CO)(OC[C@H]1O[C@@H](n2ncc3c(NC4CCCC4)nc(Cl)nc32)[C@H](O)[C@@H]1O)P(=O)(O)O [OP5244]
- EC50 ([3]; 30 μM AMP): 2.88 nM
- EC50 ([3]; 100 μM AMP): 8.37 nM
